Reference: US20060057104A1, “Methods for stimulating tlr irf3 pathways for inducing anti-microbial, anti-inflammatory and anticancer responses” (THE Regents of the University of California Office of the …, priority 2002, published 2006)

How the values were obtained:
STAT1 = settings: lipid A 1 ng/ml, poly I:C 1 μg/ml
Experimental: BMMs from both wild-type and IFNAR−/− mice were stimulated with lipid A (1 ng/ml), poly I:C (1 μg/ml), CpG (100 nM), or fresh medium (M) for the indicated time periods, as described in Example 2, infra.
(A): Cell lysates were subjected to western blotting analyses to detect phosphorylated STAT1 (P-STAT1) and total STAT1.
For STAT1 immunoblotting, cells were lysed in modified RIPA buffer and 20 μg of protein were loaded per lane and separated by SDS-PAGE. Gels were transferred to nitrocellulose filters and immunoblotted using the antibody manufacturers' recommended instructions. Antibodies specific to the STAT1 or the phosphorylated forms of STAT1 were obtained from Cell Signaling Technologies and Santa Cruz Biotechnologies, respectively. The anti-MyD88 antibody was purchased from ProSci Incorporated. For detection of MHV68, equal amounts were loaded in each lane and analyzed by western blotting techniques using rabbit anti-M9. Blots were stripped and re-probed with anti-actin (Sigma) to verify equal loading.
To address this issue we stimulated IFNAR^−/− BMMs with lipid A and poly I:C and assayed for STAT1 phosphorylation.

BMMs = test: Quantitative real-time PCR gene expression in BMMs, wild-type and IFNAR deficient (Example 2); format: cell-based, murine; settings: for TLR3 mRNA production / TLR4 mRNA production: primary macrophages, by four hours; for TLR3 mRNA production / TLR4 mRNA production / IFN-β and IP10 induction at one hour: poly I:C 1 μg/ml, lipid A 1 ng/ml; for IFI-204 expression at one hour / IFN-β and IP10 induction at one hour: wild type and IFNAR knockout macrophages; for ICAM1 mRNA (induction control): wild-type and knockout cells, one and four hours
Experimental: Murine BMMs were stimulated with poly(I:C) (10 μg/ml) or lipid A (1 ng/ml) for the indicated times. Total RiNA was isolated and converted to cDNA for quantitative real-time PCR analysis using primers specific for IFN-β, IFI-204, IP10, IκBα, or L32. Experiments were repeated three times, and the data are presented in relative expression units on a log scale, as described in Example 2, infra.
Primary macrophage cells derived from bone marrow cells were stimulated with poly I:C (1 μg/ml) or lipid A (1 ng/ml) for the indicated times, as described in Example 2, infra.
(B) TLR3 and TLR4 mRNA levels were also assessed in cells deficient in IFNAR, and cells stimulated with rIFN-β (10, 100, and 1000 U). Experiments were repeated at least two separate times, and data are presented in relative expression units. L32 was used to normalize all samples.
Both wild-type cells and cells deficient in IFNAR were stimulated with poly I:C (1 μg/ml) or lipid A (1 ng/ml) for either 1 or 4 h. IFN-β, IP10, IFI-204, ICAM1, and L32 mRNA levels were assessed. Data are representative of three independent experiments and presented in relative expression units, as described in Example 2, infra.
Murine bone marrow-derived macrophages (BMMs) were differentiated from marrow as previously described (Doyle, S. E., S. A. Vaidya, R. O'Connell, H. Dadgostar, P. W. Dempsey, T.-T. Wu, G. Rao, R. Sun, M. E. Haberland, R. L. Modlin, and G. Cheng. 2002. IRF3 mediates a TLR3/TLR4-specific antiviral gene program. Immunity 17:251). A129 (IFNAR-1^−/−) (Muller, U., U. Steinhoff, L. F. L. Reis, S. Hemmi, J. Pavlovic, R. M. Zinkernagel, and M. Aguet. 1994. Functional role of type I and type II interferons in antiviral defense. Science 264:1918) and B6129SF2/J wild type control mice were obtained from B&K Universal Ltd. and Jackson Laboratories, respectively. C57/B6 mice were used for all experiments not involving the A129 mice (Jackson Laboratories). Specific TLR activation was achieved using F-583 (Rd mutant) E. coli lipid A for TLR4 (Sigma), CpG oligonucleotides for TLR9 (Invitrogen) and poly I:C for TLR3 (Pharmacia). For experiments employing the TIRAP/MAL inhibitory peptide (CN Biosciences), cells were pretreated for 1 hour with 20 μM peptide or DMSO alone. Cells were then stimulated with PAMPs in the presence of the inhibitory peptide. For experiments using murine rIFN-β (R&D Systems), wild-type macrophage cells were stimulated with 10, 100, or 1000 units. Viral infection and harvest was performed using MHV68 at an M.O.I. of 5 as previously described (Doyle, S. E., S. A. Vaidya, R. O'Connell, H. Dadgostar, P. W. Dempsey, T.-T. Wu, G. Rao, R. Sun, M. E. Haberland, R. L. Modlin, and G. Cheng. 2002. IRF3 mediates a TLR3/TLR4-specific antiviral gene program. Immunity 17:251).
RNA was isolated by standard guanidium isothiocyanate methods. cDNA template for quantitative realtime PCR analysis was then synthesized and PCR was performed using the iCycler thermocycler (Bio-Rad) as previously described (Doyle, S. E., S. A. Vaidya, R. O'Connell, H. Dadgostar, P. W. Dempsey, T.-T. Wu, G. Rao, R. Sun, M. E. Haberland, R. L. Modlin, and G. Cheng. 2002. IRF3 mediates a TLR3/TLR4-specific antiviral gene program. Immunity 17:251). IFN-βIP10, IκBα and IFI-204 primers were the same as those previously described (Doyle, S. E., S. A. Vaidya, R. O'Connell, H. Dadgostar, P. W. Dempsey, T.-T. Wu, G. Rao, R. Sun, M. E. Haberland, R. L. Modlin, and G. Cheng. 2002. IRF3 mediates a TLR3/TLR4-specific antiviral gene program. Immunity 17:251). For other genes, the following primers were used: […]

Substance	STAT1 activation in IFNAR−/− macrophage cells (STAT1)	expression of MyD88 and TIRAP/MAL (BMMs)	induction of IFN-β, IP10 and IFI-204 relative to TLR4 agonist lipid A (BMMs; BMMs, up to twelve hours, poly I:C 10 μg/ml vs lipid A 1 ng/ml)	IFI-204 expression by four hours, IFNAR knockout cells (BMMs)	IP10 expression by four hours, IFNAR knockout cells (BMMs)	TLR3 mRNA production (BMMs)	TLR4 mRNA production (BMMs)	IFI-204 expression by four hours, wild type cells (BMMs)	IP10 expression by four hours, wild type cells (BMMs)	IFI-204 expression at one hour (BMMs)	IFN-β and IP10 induction at one hour (BMMs)	ICAM1 mRNA (induction control) (BMMs)
poly I:C	abolished	can induce the expression	induced to higher levels and for extended periods of time	not detectable	remained relatively unchanged	caused the induction of TLR3	but not TLR4	induced to high levels	significantly enhanced	remained at basal levels	induced by one hour	elevated by one hour and remained high by four hours
lipid A	abolished	can induce the expression		not detectable	remained relatively unchanged	caused the induction of TLR3	but not TLR4	induced to high levels	significantly enhanced	remained at basal levels	induced by one hour	elevated by one hour and remained high by four hours
